How the values were obtained:
[1] = molecular target: T1, Substance-K receptor (Homo sapiens, UniProt P21452); type: cell membranes, CHO, Membrane; details: cho; also: in other assays of this panel Not Active means under 50% inhibition at 10 µM
T1 sequence (P21452 whole entry): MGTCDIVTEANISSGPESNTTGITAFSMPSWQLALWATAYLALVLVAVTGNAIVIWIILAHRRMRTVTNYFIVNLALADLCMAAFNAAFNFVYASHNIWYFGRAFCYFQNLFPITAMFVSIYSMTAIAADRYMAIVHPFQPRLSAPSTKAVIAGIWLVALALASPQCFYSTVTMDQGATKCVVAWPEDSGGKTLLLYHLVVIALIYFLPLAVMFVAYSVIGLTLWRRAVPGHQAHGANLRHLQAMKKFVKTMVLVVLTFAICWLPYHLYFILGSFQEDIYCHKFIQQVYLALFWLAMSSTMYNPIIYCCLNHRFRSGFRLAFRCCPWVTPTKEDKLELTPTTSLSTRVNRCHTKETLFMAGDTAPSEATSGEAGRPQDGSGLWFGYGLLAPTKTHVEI

[2] = DRUGMATRIX: beta-Lactamase enzyme inhibition (substrate: Nitrocefin); parameters: species or system Bacillus cereus; details: Not Active = under 50% inhibition at 10 µM
[3] = DRUGMATRIX: Nicotinic Acetylcholine radioligand binding (ligand: [125I] Epibatidine); type: cell membranes, Membrane; details: imr-32; Not Active = under 50% inhibition at 10 µM
[4] = DRUGMATRIX: Purinergic P2X radioligand binding (ligand: [3H] alpha, beta-Methylene-ATP); type: cell membranes, Oryctolagus cuniculus, New Zealand albino, Urinary bladder, Membrane; details: Not Active = under 50% inhibition at 10 µM
[5] = molecular target: Mitogen-activated protein kinase 14 (Homo sapiens, UniProt Q16539); parameters: species or system Escherichia coli;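 also: inhibition of p38alpha enzyme activity in a biochemical kinase assay, with myelin basic protein serving as substrate; in other assays of this panel Not Active means under 50% inhibition at 10 µM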
Sequence of Mitogen-activated protein kinase 14 (Q16539 whole entry): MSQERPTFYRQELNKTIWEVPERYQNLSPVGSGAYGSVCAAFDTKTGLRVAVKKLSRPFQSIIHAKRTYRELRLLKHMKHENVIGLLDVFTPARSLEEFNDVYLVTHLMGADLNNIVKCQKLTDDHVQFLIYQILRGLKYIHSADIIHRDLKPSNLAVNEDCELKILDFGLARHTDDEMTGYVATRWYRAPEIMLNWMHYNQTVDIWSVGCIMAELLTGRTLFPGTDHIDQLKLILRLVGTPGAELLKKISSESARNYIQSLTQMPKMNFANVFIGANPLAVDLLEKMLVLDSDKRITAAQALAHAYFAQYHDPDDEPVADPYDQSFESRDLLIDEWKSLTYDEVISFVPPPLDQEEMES

[6] = molecular target: T2, Muscarinic acetylcholine receptor M5 (Homo sapiens, UniProt P08912); type: cell membranes, CHO-K1, Membrane; details: cho-k1; also: in other assays of this panel Not Active means under 50% inhibition at 10 µM
T2 sequence (P08912 whole entry): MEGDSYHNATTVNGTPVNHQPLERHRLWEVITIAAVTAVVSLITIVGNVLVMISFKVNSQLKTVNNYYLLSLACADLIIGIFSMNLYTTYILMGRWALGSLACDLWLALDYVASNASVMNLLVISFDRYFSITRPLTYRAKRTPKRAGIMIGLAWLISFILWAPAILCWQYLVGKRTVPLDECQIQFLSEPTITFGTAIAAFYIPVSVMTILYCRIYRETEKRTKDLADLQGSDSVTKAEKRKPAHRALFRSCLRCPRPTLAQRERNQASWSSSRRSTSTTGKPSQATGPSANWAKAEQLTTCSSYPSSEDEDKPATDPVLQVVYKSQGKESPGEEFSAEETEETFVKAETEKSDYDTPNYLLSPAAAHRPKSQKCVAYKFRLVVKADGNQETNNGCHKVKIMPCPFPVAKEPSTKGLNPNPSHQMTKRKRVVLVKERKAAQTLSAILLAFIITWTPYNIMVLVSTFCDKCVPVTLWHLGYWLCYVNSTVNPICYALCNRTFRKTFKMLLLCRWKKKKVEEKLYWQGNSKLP

[7] = molecular target: T3, Amine oxidase [flavin-containing] A (Homo sapiens, UniProt P21397); assay: DRUGMATRIX: Monoamine Oxidase MAO-A enzyme inhibition (substrate: Kynuramine); parameters: species or system BTI-TN-5B1-4; details: bti-tn-5b1-4; Not Active = under 50% inhibition at 10 µM
T3 sequence (P21397 whole entry): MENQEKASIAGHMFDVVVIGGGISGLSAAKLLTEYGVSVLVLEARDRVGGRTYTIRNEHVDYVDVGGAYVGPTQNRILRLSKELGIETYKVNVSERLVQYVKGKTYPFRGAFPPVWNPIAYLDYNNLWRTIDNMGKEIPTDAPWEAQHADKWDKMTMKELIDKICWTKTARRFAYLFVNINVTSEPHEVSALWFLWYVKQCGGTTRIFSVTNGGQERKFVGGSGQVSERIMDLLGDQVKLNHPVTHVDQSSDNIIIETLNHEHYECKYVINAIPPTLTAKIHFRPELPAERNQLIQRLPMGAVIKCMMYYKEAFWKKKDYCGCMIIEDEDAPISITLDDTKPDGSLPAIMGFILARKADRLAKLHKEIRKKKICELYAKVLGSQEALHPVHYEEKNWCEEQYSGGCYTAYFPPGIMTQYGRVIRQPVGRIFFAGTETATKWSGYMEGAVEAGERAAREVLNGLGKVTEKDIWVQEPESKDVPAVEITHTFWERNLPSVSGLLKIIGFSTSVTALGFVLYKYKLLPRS

O=NN(CCCl)C(=O)NCCCl [CARMUSTINE]
Not Active: IC50 [1] | IC50 [2] | Ki [2] | IC50 [3] | Ki [3] | IC50 [4] | Ki [4] | IC50 [5] | IC50 [6] | IC50 [7]

CC1=C(C(=O)O)N2C(=O)[C@@H](NC(=O)[C@H](N)c3ccccc3)[C@H]2SC1 [CEPHALEXIN ANHYDROUS]
Not Active: IC50 [1] | IC50 [2] | Ki [2] | IC50 [3] | Ki [3] | IC50 [4] | Ki [4] | IC50 [5] | IC50 [6] | IC50 [7]

O=C(N[C@H](CO)[C@H](O)c1ccc([N+](=O)[O-])cc1)C(Cl)Cl [CHLORAMPHENICOL]
Not Active: IC50 [1] | IC50 [2] | Ki [2] | IC50 [3] | Ki [3] | IC50 [4] | Ki [4] | IC50 [5] | IC50 [6] | IC50 [7]

ClC(Cl)Cl [CHLOROFORM]
Not Active: IC50 [1] | IC50 [2] | Ki [2] | IC50 [3] | Ki [3] | IC50 [4] | Ki [4] | IC50 [5] | IC50 [6] | IC50 [7]

C=C1CC[C@H](O)C/C1=C/C=C1\CCC[C@]2(C)[C@@H]([C@H](C)CCCC(C)C)CC[C@@H]12 [CHOLECALCIFEROL]
Not Active: IC50 [1] | IC50 [2] | Ki [2] | IC50 [3] | Ki [3] | IC50 [4] | Ki [4] | IC50 [5] | IC50 [6] | IC50 [7]

C[N+](C)(C)CCO.[Cl-] [CHOLINE CHLORIDE]
Not Active: IC50 [1] | IC50 [2] | Ki [2] | IC50 [3] | Ki [3] | IC50 [4] | Ki [4] | IC50 [5] | IC50 [6] | IC50 [7]

CCOC(=O)C(C)(C)Oc1ccc(Cl)cc1 [CLOFIBRATE]
Not Active: IC50 [1] | IC50 [2] | Ki [2] | IC50 [3] | Ki [3] | IC50 [4] | Ki [4] | IC50 [5] | IC50 [6] | IC50 [7]

CC(=O)OCC(=O)[C@@]1(O)CC[C@H]2[C@@H]3CCC4=CC(=O)CC[C@]4(C)[C@H]3C(=O)C[C@@]21C [CORTISONE ACETATE]
Not Active: IC50 [1] | IC50 [2] | Ki [2] | IC50 [3] | Ki [3] | IC50 [4] | Ki [4] | IC50 [5] | IC50 [6] | IC50 [7]

O=c1ccc2ccccc2o1 [COUMARIN]
Not Active: IC50 [1] | IC50 [2] | Ki [2] | IC50 [3] | Ki [3] | IC50 [4] | Ki [4] | IC50 [5] | IC50 [6] | IC50 [7]

C[C@@H]1C[C@@H]([C@H](O)CC2CC(=O)NC(=O)C2)C(=O)[C@@H](C)C1 [CYCLOHEXIMIDE]
Not Active: IC50 [1] | IC50 [2] | Ki [2] | IC50 [3] | Ki [3] | IC50 [4] | Ki [4] | IC50 [5] | IC50 [6] | IC50 [7]

CN(C)/N=N/c1[nH]cnc1C(N)=O [DACARBAZINE]
Not Active: IC50 [1] | IC50 [2] | Ki [2] | IC50 [3] | Ki [3] | IC50 [4] | Ki [4] | IC50 [5] | IC50 [6] | IC50 [7]

COc1ccc2c(c1)[C@]13CCCC[C@@H]1[C@H](C2)N(C)CC3 [DEXTROMETHORPHAN]
Not Active: IC50 [1] | IC50 [2] | Ki [2] | IC50 [3] | Ki [3] | IC50 [4] | Ki [4] | IC50 [5] | IC50 [6] | IC50 [7]

CC(=O)Nc1c(I)c(NC(C)=O)c(I)c(C(=O)O)c1I [DIATRIZOIC ACID]
Not Active: IC50 [1] | IC50 [2] | Ki [2] | IC50 [3] | Ki [3] | IC50 [4] | Ki [4] | IC50 [5] | IC50 [6] | IC50 [7]

COP(=O)(OC)OC=C(Cl)Cl [DICHLORVOS]
Not Active: IC50 [1] | IC50 [2] | Ki [2] | IC50 [3] | Ki [3] | IC50 [4] | Ki [4] | IC50 [5] | IC50 [6] | IC50 [7]

O=C(O)Cc1ccccc1Nc1c(Cl)cccc1Cl [DICLOFENAC]
Not Active: IC50 [1] | IC50 [2] | Ki [2] | IC50 [3] | Ki [3] | IC50 [4] | Ki [4] | IC50 [5] | IC50 [6] | IC50 [7]

C[C@H]1O[C@@H](O[C@H]2[C@@H](O)C[C@H](O[C@H]3[C@@H](O)C[C@H](O[C@H]4CC[C@@]5(C)[C@H](CC[C@@H]6[C@@H]5CC[C@]5(C)[C@@H](C7=CC(=O)OC7)CC[C@]65O)C4)O[C@@H]3C)O[C@@H]2C)C[C@H](O)[C@@H]1O [DIGITOXIN]
Not Active: IC50 [1] | IC50 [2] | Ki [2] | IC50 [3] | Ki [3] | IC50 [4] | Ki [4] | IC50 [5] | IC50 [6] | IC50 [7]

CCN1CC(CCN2CCOCC2)C(c2ccccc2)(c2ccccc2)C1=O (stereo not given) [DOXAPRAM]
Not Active: IC50 [1] | IC50 [2] | Ki [2] | IC50 [3] | Ki [3] | IC50 [4] | Ki [4] | IC50 [5] | IC50 [6] | IC50 [7]

Cn1c(=O)c2c(ncn2CC2OCCO2)n(C)c1=O [DOXOFYLLINE]
Not Active: IC50 [1] | IC50 [2] | Ki [2] | IC50 [3] | Ki [3] | IC50 [4] | Ki [4] | IC50 [5] | IC50 [6] | IC50 [7]

COc1cccc2c1C(=O)c1c(O)c3c(c(O)c1C2=O)C[C@@](O)(C(=O)CO)C[C@@H]3O[C@H]1C[C@H](N)[C@H](O)[C@H](C)O1 [DOXORUBICIN]
Not Active: IC50 [1] | IC50 [2] | Ki [2] | IC50 [3] | Ki [3] | IC50 [4] | Ki [4] | IC50 [5] | IC50 [6] | IC50 [7]

COc1cccc2c1C(=O)c1c(O)c3c(c(O)c1C2=O)C[C@@](O)(C(=O)CO)C[C@@H]3O[C@H]1C[C@H](N)[C@@H](O)[C@H](C)O1 [EPIRUBICIN]
Not Active: IC50 [1] | IC50 [2] | Ki [2] | IC50 [3] | Ki [3] | IC50 [4] | Ki [4] | IC50 [5] | IC50 [6] | IC50 [7]

C[C@]12CC[C@@H]3c4ccc(OC(=O)c5ccccc5)cc4CC[C@H]3[C@@H]1CC[C@@H]2O [ESTRADIOL BENZOATE]
Not Active: IC50 [1] | IC50 [2] | Ki [2] | IC50 [3] | Ki [3] | IC50 [4] | Ki [4] | IC50 [5] | IC50 [6] | IC50 [7]
